Test results from the supplement of paper PMC10307832.

How the values were obtained:
Assay in all cases: relative viability (nuclei count vs DMSO), 5 days (fraction); higher = more cells survive
Pictilisib + Luminespib = compound: CS(=O)(=O)N1CCN(Cc2cc3nc(-c4cccc5[nH]ncc45)nc(N4CCOCC4)c3s2)CC1 [Pictilisib] + CCNC(=O)c1noc(-c2cc(C(C)C)c(O)cc2O)c1-c1ccc(CN2CCOCC2)cc1 [Luminespib] (partner 0.01 µM)
How it was run: (§1)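 Lung cancer cell lines in 1536-well plates were dosed by pin tool the day after seeding, either with one drug alone or with a fixed anchor-drug dose plus five library-drug doses (not always all listed) in √10 steps. After 5 days, cells were fixed and their nuclei stained in one step (final 0.05% Triton X-100, 1% formaldehyde, 1 ug/ml Hoechst), then counted on 4× images. Relative viability is the nuclei count in treated wells divided by that in vehicle wells. Values are medians of duplicate plates.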

Pictilisib + OSI-027 = compound: CS(=O)(=O)N1CCN(Cc2cc3nc(-c4cccc5[nH]ncc45)nc(N4CCOCC4)c3s2)CC1 [Pictilisib] + COc1cccc2cc(-c3nc([C@H]4CC[C@H](C(=O)O)CC4)n4ncnc(N)c34)[nH]c12 [OSI-027] (partner 0.5 µM)
How it was run: as §1

MK-2206 = compound: NC1(c2ccc(-c3nc4ccn5c(=O)[nH]nc5c4cc3-c3ccccc3)cc2)CCC1 [MK-2206]
How it was run: (§2)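 Only plates meeting two conditions passed: control CV below 25% and at least one doubling. Lung cancer cell lines, kept overnight at 37 °C in 1536-well plates, were pinned with five library-drug doses (not always all listed) √10 apart on vehicle-anchored plates and grown 5 days without medium change. A one-step fix, permeabilisation and Hoechst stain preceded 4× imaging and MetaXpress nuclear counting. Viability equals treated-well nuclei divided by vehicle-well nuclei, as the median over plates.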

Pictilisib = compound: CS(=O)(=O)N1CCN(Cc2cc3nc(-c4cccc5[nH]ncc45)nc(N4CCOCC4)c3s2)CC1 [Pictilisib]
How it was run: as §2

Row | Cell Line | relative viability (Pictilisib + Luminespib; first compound 0.02 µM) | relative viability (Pictilisib + Luminespib; first compound 0.06325 µM) | relative viability (Pictilisib + Luminespib; first compound 0.6325 µM) | relative viability (Pictilisib + Luminespib; first compound 2 µM) | relative viability (Pictilisib + OSI-027; first compound 0.02 µM) | relative viability (Pictilisib + OSI-027; first compound 0.06325 µM) | relative viability (Pictilisib + OSI-027; first compound 0.6325 µM) | relative viability (Pictilisib + OSI-027; first compound 2 µM) | relative viability (MK-2206; 0.01 µM) | relative viability (MK-2206; 0.03162 µM) | relative viability (MK-2206; 0.3162 µM) | relative viability (MK-2206; 1 µM) | relative viability (Pictilisib; 0.02 µM) | relative viability (Pictilisib; 0.06325 µM) | relative viability (Pictilisib; 0.6325 µM) | relative viability (Pictilisib; 1 µM, anchor plate) | relative viability (Pictilisib; 2 µM)
1 | EKVX | 0.875 | 0.942 | 0.833 | 0.408 | 0.697 | 0.352 | 0.561 | 0.269 | 1.01 | 0.952 | 0.936 | 0.758 | 0.911 | 0.941 | 0.91 | 0.433 | 0.453
2 | NCI-H2085 | 0.44 | 0.431 | 0.409 | 0.265 | 0.706 | 0.802 | 0.303 | 0.284 | 0.965 | 1.01 | 0.957 | 0.969 | 0.956 | 0.99 | 0.836 | 0.471 | 0.442
3 | NCI-H3122 | 0.0804 | 0.107 | 0.0795 | 0.0927 | 0.909 | 0.786 | 0.435 | 0.172 | 1.02 | 1.03 | 1.05 | 0.984 | 1.01 | 1.04 | 0.954 | 0.644 | 0.511
4 | HCC-827 | 1.01 | 0.472 | 0.224 | 0.152 | 0.824 | 0.696 | 0.338 | 0.192 | 1.04 | 1.05 | 1.05 | 0.932 | 1.11 | 1.05 | 1.05 | 0.939 | 0.866
5 | HARA | 0.767 | 0.622 | 0.113 | 0.166 | 0.477 | 0.507 | 0.202 | 0.133 | 0.972 | 1.08 | 1.08 | 0.832 | 1.05 | 1.13 | 0.846 | 0.401 | 0.555
6 | NCI-H441 | 0.307 | 0.236 | 0.269 | 0.221 | 0.486 | 0.552 | 0.38 | 0.307 | 1.09 | 1.05 | 0.845 | 0.921 | 1.01 | 1.06 | 0.595 | 0.514 | 0.48
7 | NCI-H2342 | 0.669 | 0.586 | 0.588 | 0.365 | 0.541 | 0.605 | 0.551 | 0.417 | 1.05 | 0.959 | 0.892 | 0.815 | 0.949 | 0.931 | 0.838 | – | 0.531
8 | SK-MES-1 | 0.748 | 0.702 | 0.279 | 0.219 | 0.596 | 0.566 | 0.334 | 0.215 | 0.959 | 1.02 | 0.954 | 0.887 | 1.04 | 1.01 | 0.778 | 0.392 | 0.365
9 | HCC-15 | 0.493 | 0.346 | 0.38 | 0.291 | 0.693 | 0.641 | 0.407 | 0.32 | 0.996 | 1.06 | 0.866 | 0.923 | 1.1 | 1.02 | 0.866 | 0.737 | 0.666
10 | ABC-1 | 0.514 | 0.583 | 0.394 | 0.545 | 0.434 | 0.462 | 0.337 | 0.335 | 0.947 | 0.949 | 0.884 | 0.879 | 1.02 | 0.962 | 0.764 | 0.782 | 0.551
11 | EPLC-272H | 0.213 | 0.424 | 0.184 | 0.207 | 0.296 | 0.284 | 0.242 | 0.18 | 1.09 | 0.914 | 0.77 | 0.716 | 0.988 | 0.909 | 0.668 | 0.332 | 0.496
12 | NCI-H2009 | 1.01 | 1.05 | 1.04 | 0.773 | 0.656 | 0.583 | 0.319 | 0.188 | 0.97 | 1.04 | 1.02 | 0.993 | 1.03 | 1.04 | 0.967 | 0.783 | 0.679
13 | NCI-H661 | 0.969 | 0.938 | 0.953 | 0.813 | 0.687 | 0.682 | 0.499 | 0.261 | 0.997 | 1.02 | 1.03 | 1.01 | 1.02 | 1.05 | 1.03 | 0.424 | 0.672
14 | NCI-H520 | 0.212 | 0.221 | 0.223 | 0.217 | 0.239 | 0.332 | 0.156 | 0.171 | 0.992 | 0.871 | 0.553 | 0.331 | 0.998 | 0.886 | 0.361 | 0.298 | 0.203
15 | NCI-H1563 | 0.44 | 0.513 | 0.497 | 0.468 | 0.737 | 0.713 | 0.554 | 0.57 | 0.925 | 0.975 | 0.885 | 0.764 | 1.01 | 0.929 | 0.668 | 0.626 | 0.533
16 | NCI-H2405 | 0.694 | 0.611 | 0.416 | 0.235 | 0.548 | 0.569 | 0.486 | 0.278 | 1.02 | 1.03 | 0.968 | 0.839 | 1.07 | 0.977 | 0.851 | 0.433 | 0.451
17 | LCLC-97TM1 | 0.751 | 0.867 | 0.442 | 0.224 | 0.4 | 0.488 | 0.301 | 0.253 | 0.941 | 1.05 | 0.968 | 0.829 | 0.928 | 0.932 | 0.791 | 0.199 | 0.217
18 | NCI-H727 | 0.443 | 0.334 | 0.29 | 0.346 | 0.741 | 0.649 | 0.548 | 0.333 | 0.976 | 1.01 | 0.901 | 0.894 | 1.04 | 0.92 | 0.914 | 0.39 | 0.536
